According to patent US6495571B1, “Pyridine compounds, use and preparation thereof” (Southern Research Institute, priority 1999, dated 2002):
Like-named read-outs stand apart in the source and are kept apart here. Marks after values point to notes of the source that are not given here.

How the values were obtained:
[1] = system: human MX-1 mammary tumor (sc, 30-40 mg fragments); assay: In vivo antitumor activity, s.c.-implanted MX-1 xenograft; design: species or system Athymic mice (Ncr-nu)
[2] = system: human MX-1 mammary tumor (ic, 10^6 cells); assay: In vivo antitumor activity, i.c.-implanted MX-1 xenograft; conditions: for Median % ILS (dying mice only) / Tumor-Free-Surv/Total: Days 1-5; for Median % ILS (based on dying mice only) / Survivors: optimal doses (LD10 or less), schedule QD1-5, administered LP.
[3] = system: P388/L-PAM (melphalan-resistant) leukemia
[4] = Cytotoxicity in vitro; assay type: cell-based
[5] = system: P388/0 murine leukemia
[6] = system: P388/CPA (cyclophosphamide-resistant) leukemia; assay type: in vivo, CD2F1 female mice
[7] = system: P388/BCNU (carmustine-resistant) leukemia; assay: Antitumor activity against IP-implanted P388/BCNU leukemia; conditions: Q1D × 5 (1)
[8] = system: cancer; assay: Anti-cancer activity (test not specified)
[9] = oral (gavage) 135 mg/kg/dose, Days 13-17
[10] = IP 60.0 mg/kg/dose, Q1D × 5 (1)
[11] = IP 90.0 mg/kg/dose, Q1D × 5 (1)
[12] = IP 135.0 mg/kg/dose, Q1D × 5 (1)
[13] = IP 175.0 mg/kg/dose, Q1D × 1 (1)
[14] = IP 265.0 mg/kg/dose, Q1D × 1 (1)

C=CC(=O)Oc1c(Cl)c(OC)nc(C(Cl)(Cl)Cl)c1Cl [DM-AC-PEN]
T-C ([1]; IP 60 mg/kg/dose, Days 12-16): 30.0 days | Tumor-Free-Surv/Total ([1]; IP 60 mg/kg/dose, Days 12-16): 1/5 | Median % ILS (dying mice only) ([2]; IP 60 mg/kg/dose): +55% | Tumor-Free-Surv/Total ([2]; IP 60 mg/kg/dose): 0/5

COc1nc(C(Cl)(Cl)Cl)c(Cl)c(OC(=O)C(Cl)Cl)c1Cl [DM-DCA-PEN]
T-C ([1]; IP 135 mg/kg/dose, Days 12-16): >38.6 days | Tumor-Free-Surv/Total ([1]; IP 135 mg/kg/dose, Days 12-16): 2/5

COc1nc(C(Cl)(Cl)Cl)c(Cl)c(OC(=O)C(C)(C)C)c1Cl [DM-P-PEN]
T-C ([1]; IP 135 mg/kg/dose, Days 11-15): >42.7 days | Tumor-Free-Surv/Total ([1]; IP 135 mg/kg/dose, Days 11-15): 5/5 | T-C [1, 9]: 0.9 days | Tumor-Free-Surv/Total [1, 9]: 0/5 | Median % ILS (dying mice only) ([2]; IP 135 mg/kg/dose): +64% | Tumor-Free-Surv/Total ([2]; IP 135 mg/kg/dose): 0/5 | Median % ILS (dying mice only) ([2]; oral (gavage) 135 mg/kg/dose): +20% | Tumor-Free-Surv/Total ([2]; oral (gavage) 135 mg/kg/dose): 0/5

COc1nc(C(Cl)(Cl)Cl)c(Cl)c(O)c1Cl [DM-PEN, 3,5-dichloro-2-methoxy-4-hydroxy-6-(trichloromethyl)pyridine]
50-DAY SURV./TOTAL [3, 10]: 0/6 | MEDIAN DAY OF DEATH [3, 10]: 13.5 | 50-DAY SURV./TOTAL [3, 11]: 0/6 | 50-DAY SURV./TOTAL [3, 12]: 0/6 | Lethality of the dosage (LD mark beside % ILS) [3, 12]: LD33 | activity in this tumor model (in words) ([3]; mouse, in vivo): none of the three showed significant activity | activity as cytotoxic agents in vitro [4]: inactive | cures ([2]; Table 2 conditions): not | Median % ILS (based on dying mice only) [2]: 60% | Survivors [2]: 0/5 | 50-DAY SURV./TOTAL [5, 10]: 0/6 | 50-DAY SURV./TOTAL [5, 11]: 0/6 | MEDIAN DAY OF DEATH [5, 11]: 19.0 | 50-DAY SURV./TOTAL [5, 12]: 0/6 | APPROX. NET LOG10 CHANGE IN TUMOR BURDEN AT END OF Rx [5, 12]: TOXIC | MEDIAN DAY OF DEATH [5, 12]: 8.5 | 50-DAY SURV./TOTAL [6, 10]: 0/6 | % ILS [6, 10]: +22% | MEDIAN DAY OF DEATH [6, 10]: 13.5 | 50-DAY SURV./TOTAL [6, 11]: 0/6 | % ILS [6, 11]: +54% | 50-DAY SURV./TOTAL [6, 12]: 0/6 | % ILS [6, 12]: +31% | MEDIAN DAY OF DEATH [6, 12]: 14.5 | 50-DAY SURV./TOTAL ([7]; IP 60.0 mg/kg/dose): 0/6 | % ILS ([7]; IP 60.0 mg/kg/dose): +33% | APPROX. NET LOG10 CHANGE IN TUMOR BURDEN AT END OF Rx ([7]; IP 60.0 mg/kg/dose): +0.8 | 50-DAY SURV./TOTAL ([7]; IP 90.0 mg/kg/dose): 0/6 | APPROX. NET LOG10 CHANGE IN TUMOR BURDEN AT END OF Rx ([7]; IP 90.0 mg/kg/dose): −0.6 | MEDIAN DAY OF DEATH ([7]; IP 90.0 mg/kg/dose): 14.0 | 50-DAY SURV./TOTAL ([7]; IP 135.0 mg/kg/dose): 0/6 | % ILS ([7]; IP 135.0 mg/kg/dose): +88% | Lethality of the dosage (LD mark beside % ILS) ([7]; IP 135.0 mg/kg/dose): LD17

COc1nc(C(Cl)(Cl)Cl)c(Cl)c(OC(=O)c2ccco2)c1Cl [DM-F-PEN]
T-C ([1]; IP 90 mg/kg/dose, Days 12-16): >41.2 days | Tumor-Free-Surv/Total ([1]; IP 90 mg/kg/dose, Days 12-16): 5/5 | Median % ILS (dying mice only) ([2]; IP 135 mg/kg/dose): +108% | Tumor-Free-Surv/Total ([2]; IP 135 mg/kg/dose): 2/5 | activity against i.c.-implanted tumor (in words) ([2]; in comparison to PEN and DM-PEN): significant activity | Median % ILS (based on dying mice only) [2]: 108^c % | Survivors [2]: 2/5

COc1nc(C(Cl)(Cl)Cl)c(Cl)c(OC(=O)c2ccc([N+](=O)[O-])o2)c1Cl [DM-NF-PEN]
T-C ([1]; IP 90 mg/kg/dose, Days 12-16): >41.2 days | Tumor-Free-Surv/Total ([1]; IP 90 mg/kg/dose, Days 12-16): 4/5 | Median % ILS (dying mice only) ([2]; IP 135 mg/kg/dose): +59% | Tumor-Free-Surv/Total ([2]; IP 135 mg/kg/dose): 0/5

COc1nc(C(Cl)(Cl)Cl)c(Cl)c(OC(=O)COC(C)=O)c1Cl [DM-AA-PEN]
Median % ILS (dying mice only) ([2]; IP 135 mg/kg/dose): +67% | Tumor-Free-Surv/Total ([2]; IP 135 mg/kg/dose): 0/5 | Median % ILS (dying mice only) ([2]; oral (gavage) 135 mg/kg/dose): +115% | Tumor-Free-Surv/Total ([2]; oral (gavage) 135 mg/kg/dose): 2/5

CCOc1nc(C(Cl)(Cl)Cl)c(Cl)c(OCC)c1Cl [3,5-dichloro-4,6-diethoxy-2-(trichloromethyl)pyridine]
anti-cancer activity (in words) [8]: active anti-cancer activity

O=P1(N(CCCl)CCCl)NCCCO1 (stereo not drawn) [CPA (cycloposphamide), cyclophosphamide]
50-DAY SURV./TOTAL [5, 13]: 1/6 | % ILS [5, 13]: +172% | APPROX. NET LOG10 CHANGE IN TUMOR BURDEN AT END OF Rx [5, 13]: ca −6.8 | 50-DAY SURV./TOTAL [5, 14]: 6/6 | 50-DAY SURV./TOTAL [6, 13]: 0/6 | % ILS [6, 13]: +9% | APPROX. NET LOG10 CHANGE IN TUMOR BURDEN AT END OF Rx [6, 13]: −0.6 | 50-DAY SURV./TOTAL [6, 14]: 0/6 | % ILS [6, 14]: +27% | APPROX. NET LOG10 CHANGE IN TUMOR BURDEN AT END OF Rx [6, 14]: −1.7

COc1nc(C(Cl)(Cl)Cl)c(Cl)c(OC(=O)Cc2cccs2)c1Cl [DM-TA-PEN]
T-C ([1]; IP 90 mg/kg/dose, Days 12-16): >41.2 days | Tumor-Free-Surv/Total ([1]; IP 90 mg/kg/dose, Days 12-16): 3/5 | Median % ILS (dying mice only) ([2]; IP 90 mg/kg/dose): +75% | Tumor-Free-Surv/Total ([2]; IP 90 mg/kg/dose): 0/5

COC(=O)CCC(=O)Oc1c(Cl)c(OC)nc(C(Cl)(Cl)Cl)c1Cl [DM-CMP-PEN]
T-C ([1]; IP 135 mg/kg/dose, Days 11-15): >42.7 days | Tumor-Free-Surv/Total ([1]; IP 135 mg/kg/dose, Days 11-15): 3/5 | T-C [1, 9]: >38.5 days | Tumor-Free-Surv/Total [1, 9]: 2/5 | Median % ILS (dying mice only) ([2]; IP 90 mg/kg/dose): +87% | Tumor-Free-Surv/Total ([2]; IP 90 mg/kg/dose): 1/5 | Median % ILS (dying mice only) ([2]; oral (gavage) 90 mg/kg/dose): +76% | Tumor-Free-Surv/Total ([2]; oral (gavage) 90 mg/kg/dose): 1/5

COc1nc(C(Cl)(Cl)Cl)c(Cl)c(OC(=O)c2c(Cl)cc(Cl)cc2Cl)c1Cl [DM-TCB-PEN]
Median % ILS (dying mice only) ([2]; IP 135 mg/kg/dose): +92% | Tumor-Free-Surv/Total ([2]; IP 135 mg/kg/dose): 1/5
